Molecular target: GST-Bc1-2 (Homo sapiens, UniProt P10415)
Experiment: Time Resolved-Fluorescence Resonance Energy Transfer (TR-FRET) Bcl-2 binding assay with F-Bak peptide probe
Conditions: GST-Bcl-2 1 nM, F-Bak probe 100 nM, Tb-anti-GST 1 nM; '<' = below limit of detection; read-out: TR-FRET Bcl-2 Binding Ki

GST-Bc1-2, sequence (P10415 whole entry): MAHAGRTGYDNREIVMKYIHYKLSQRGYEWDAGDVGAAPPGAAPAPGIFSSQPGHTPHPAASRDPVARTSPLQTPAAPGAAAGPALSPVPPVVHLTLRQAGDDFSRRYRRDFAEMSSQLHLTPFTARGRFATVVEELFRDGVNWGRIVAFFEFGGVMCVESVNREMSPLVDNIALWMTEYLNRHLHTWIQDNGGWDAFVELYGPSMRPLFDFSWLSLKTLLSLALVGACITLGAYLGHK

Row | SMILES | Ki [nM]
1 | CC1(C)CCC(CN2CCN(c3ccc(C(=O)NS(=O)(=O)c4ccc(OC[C@@H]5COCCO5)c([N+](=O)[O-])c4)c(Oc4cnc5[nH]ccc5c4)c3)CC2)=C(c2ccc(Cl)cc2)C1 [Example 28, 4-(4-{[2-(4-chlorophenyl)-4,4-dimethylcyclohex-1-en-1-yl]methyl}piperazin-1-yl)-N-({4-[(2S)-1,4-dioxan-2-ylmethoxy]-3-nitrophenyl}sulfonyl)-2-(1H-pyrrolo[2,3-b]pyridin-5-yloxy)benzamide] | < 0.01
2 | CO[C@H]1CC[C@@H](CNc2ccc(S(=O)(=O)NC(=O)c3ccc(N4CCN(CC5=C(c6ccc(Cl)cc6)CC(C)(C)CC5)CC4)cc3Oc3cnc4[nH]ccc4c3)cc2[N+](=O)[O-])CC1 [Example 29, Cis-4-(4-{[2-(4-chlorophenyl)-4,4-dimethylcyclohex-1-en-1-yl]methyl}piperazin-1-yl)-N-[(4-{[(4-methoxycyclohexyl)methyl]amino}-3-nitrophenyl)sulfonyl]-2-(1H-pyrrolo[2,3-b]pyridin-5-yloxy)benzamide] | < 0.01
3 | CC1(C)CCC(CN2CCN(c3ccc(C(=O)NS(=O)(=O)c4ccc(OC[C@H]5COCCO5)c([N+](=O)[O-])c4)c(Oc4cnc5[nH]ccc5c4)c3)CC2)=C(c2ccc(Cl)cc2)C1 [Example 30, 4-(4-{[2-(4-chlorophenyl)-4,4-dimethylcyclohex-1-en-1-yl]methyl}piperazin-1-yl)-N-({4-[(2R)-1,4-dioxan-2-ylmethoxy]-3-nitrophenyl}sulfonyl)-2-(1H-pyrrolo[2,3-b]pyridin-5-yloxy)benzamide] | < 0.01
4 | CC1(C)CC(c2ccc(Cl)cc2)=C(CN2CCN(c3ccc(C(=O)NS(=O)(=O)c4ccc(NCC5COCCO5)c([N+](=O)[O-])c4)c(Oc4cnc5[nH]ccc5c4)c3)CC2)CO1 (stereo not shown) [Example 31, 4-(4-{[4-(4-chlorophenyl)-6,6-dimethyl-5,6-dihydro-2H-pyran-3-yl]methyl}piperazin-1-yl)-N-({4-[(1,4-dioxan-2-ylmethyl)amino]-3-nitrophenyl}sulfonyl)-2-(1H-pyrrolo[2,3-b]pyridin-5-yloxy)benzamide] | < 0.01
5 | CC1(C)CC(c2ccc(Cl)cc2)=C(CN2CCN(c3ccc(C(=O)NS(=O)(=O)c4ccc(OCC5COCCO5)c([N+](=O)[O-])c4)c(Oc4cnc5[nH]ccc5c4)c3)CC2)CO1 (stereo not shown) [Example 32, 4-(4-{[4-(4-chlorophenyl)-6,6-dimethyl-5,6-dihydro-2H-pyran-3-yl]methyl}piperazin-1-yl)-N-{[4-(1,4-dioxan-2-ylmethoxy)-3-nitrophenyl]sulfonyl}-2-(1H-pyrrolo[2,3-b]pyridin-5-yloxy)benzamide] | < 0.01
6 | CC1(C)CC(c2ccc(Cl)cc2)=C(CN2CCN(c3ccc(C(=O)NS(=O)(=O)c4ccc(N[C@H]5CC[C@H](N6CCOCC6)CC5)c([N+](=O)[O-])c4)c(Oc4cnc5[nH]ccc5c4)c3)CC2)CO1 [Example 33, Trans-4-(4-{[4-(4-chlorophenyl)-6,6-dimethyl-5,6-dihydro-2H-pyran-3-yl]methyl}piperazin-1-yl)-N-({4-[(4-morpholin-4-ylcyclohexyl)amino]-3-nitrophenyl}sulfonyl)-2-(1H-pyrrolo[2,3-b]pyridin-5-yloxy)benzamide] | < 0.01
7 | CO[C@H]1CC[C@H](CNc2ccc(S(=O)(=O)NC(=O)c3ccc(N4CCN(CC5=C(c6ccc(Cl)cc6)CC(C)(C)CC5)CC4)cc3Oc3cnc4[nH]ccc4c3)cc2[N+](=O)[O-])CC1 [Example 34, Trans-4-(4-{[2-(4-chlorophenyl)-4,4-dimethylcyclohex-1-en-1-yl]methyl}piperazin-1-yl)-N-[(4-{[(4-methoxycyclohexyl)methyl]amino}-3-nitrophenyl)sulfonyl]-2-(1H-pyrrolo[2,3-b]pyridin-5-yloxy)benzamide] | 0.01
8 | CC1(C)CC(c2ccc(Cl)cc2)=C(CN2CCN(c3ccc(C(=O)NS(=O)(=O)c4cnc(OCC5CCOCC5)c(C#N)c4)c(Oc4cnc5[nH]ccc5c4)c3)CC2)CO1 [Example 35, 4-(4-{[4-(4-chlorophenyl)-6,6-dimethyl-5,6-dihydro-2H-pyran-3-yl]methyl}piperazin-1-yl)-N-{[5-cyano-6-(tetrahydro-2H-pyran-4-ylmethoxy)pyridin-3-yl]sulfonyl}-2-(1H-pyrrolo[2,3-b]pyridin-5-yloxy)benzamide] | < 0.01
9 | CC1(C)CCC(CN2CCN(c3ccc(C(=O)NS(=O)(=O)c4cnc(OCC5CCOCC5)c(C#N)c4)c(Oc4cnc5[nH]ccc5c4)c3)CC2)=C(c2ccc(Cl)cc2)C1 [Example 36, 4-(4-{[2-(4-chlorophenyl)-4,4-dimethylcyclohex-1-en-1-yl]methyl}piperazin-1-yl)-N-{[5-cyano-6-(tetrahydro-2H-pyran-4-ylmethoxy)pyridin-3-yl]sulfonyl}-2-(1H-pyrrolo[2,3-b]pyridin-5-yloxy)benzamide] | 0.017
10 | CC1(C)CCC(CN2CCN(c3ccc(C(=O)NS(=O)(=O)c4ccc(OCC5(F)CCOCC5)c([N+](=O)[O-])c4)c(Oc4cnc5[nH]ccc5c4)c3)CC2)=C(c2ccc(Cl)cc2)C1 [Example 37, 4-(4-{[2-(4-chlorophenyl)-4,4-dimethylcyclohex-1-en-1-yl]methyl}piperazin-1-yl)-N-({4-[(4-fluorotetrahydro-2H-pyran-4-yl)methoxy]-3-nitrophenyl}sulfonyl)-2-(1H-pyrrolo[2,3-b]pyridin-5-yloxy)benzamide] | < 0.01
11 | CC1(C)CCC(CN2CCN(c3ccc(C(=O)NS(=O)(=O)c4ccc(OCC5CCOCC5)c(C(N)=O)c4)c(Oc4cnc5[nH]ccc5c4)c3)CC2)=C(c2ccc(Cl)cc2)C1 [Example 38, N-{[3-(aminocarbonyl)-4-(tetrahydro-2H-pyran-4-ylmethoxy)phenyl]sulfonyl}-4-(4-{[2-(4-chlorophenyl)-4,4-dimethylcyclohex-1-en-1-yl]methyl}piperazin-1-yl)-2-(1H-pyrrolo[2,3-b]pyridin-5-yloxy)benzamide] | 0.3
12 | CC1(C)CCC(CN2CCN(c3ccc(C(=O)NS(=O)(=O)c4ccc(N[C@H]5CC[C@@H](N6CCOCC6)CC5)c([N+](=O)[O-])c4)c(Oc4cnc5[nH]ccc5c4)c3)CC2)=C(c2ccc(Cl)cc2)C1 [Example 39, Cis-4-(4-{[2-(4-chlorophenyl)-4,4-dimethylcyclohex-1-en-1-yl]methyl}piperazin-1-yl)-N-({4-[(4-morpholin-4-ylcyclohexyl)amino]-3-nitrophenyl}sulfonyl)-2-(1H-pyrrolo[2,3-b]pyridin-5-yloxy)benzamide] | 0.012
13 | CC1(C)CCC(CN2CCN(c3ccc(C(=O)NS(=O)(=O)c4cnc(OCC5CCOCC5)c(Cl)c4)c(Oc4cnc5[nH]ccc5c4)c3)CC2)=C(c2ccc(Cl)cc2)C1 [Example 40, 4-(4-{[2-(4-chlorophenyl)-4,4-dimethylcyclohex-1-en-1-yl]methyl}piperazin-1-yl)-N-{[5-chloro-6-(tetrahydro-2H-pyran-4-ylmethoxy)pyridin-3-yl]sulfonyl}-2-(1H-pyrrolo[2,3-b]pyridin-5-yloxy)benzamide] | < 0.01
14 | CC1(C)CC(c2ccc(Cl)cc2)=C(CN2CCN(c3ccc(C(=O)NS(=O)(=O)c4cnc(OCC5CCOCC5)c(Cl)c4)c(Oc4cnc5[nH]ccc5c4)c3)CC2)CO1 [Example 41, 4-(4-{[4-(4-chlorophenyl)-6,6-dimethyl-5,6-dihydro-2H-pyran-3-yl]methyl}piperazin-1-yl)-N-{[5-chloro-6-(tetrahydro-2H-pyran-4-ylmethoxy)pyridin-3-yl]sulfonyl}-2-(1H-pyrrolo[2,3-b]pyridin-5-yloxy)benzamide] | < 0.01
15 | CC1(C)CC(c2ccc(Cl)cc2)=C(CN2CCN(c3ccc(C(=O)NS(=O)(=O)c4ccc(NCC5CCOCC5)c(C(F)(F)F)c4)c(Oc4cnc5[nH]ccc5c4)c3)CC2)CO1 [Example 42, 4-(4-{[4-(4-chlorophenyl)-6,6-dimethyl-5,6-dihydro-2H-pyran-3-yl]methyl}piperazin-1-yl)-2-(1H-pyrrolo[2,3-b]pyridin-5-yloxy)-N-{[4-[(tetrahydro-2H-pyran-4-ylmethyl)amino]-3-(trifluoromethyl)phenyl]sulfonyl}benzamide] | 0.439
16 | CC1(C)CC(c2ccc(Cl)cc2)=C(CN2CCN(c3ccc(C(=O)NS(=O)(=O)c4ccc(NCC5CCOCC5)c(S(=O)(=O)C(F)(F)F)c4)c(Oc4cnc5[nH]ccc5c4)c3)CC2)CO1 [Example 43, 4-(4-{[4-(4-chlorophenyl)-6,6-dimethyl-5,6-dihydro-2H-pyran-3-yl]methyl}piperazin-1-yl)-2-(1H-pyrrolo[2,3-b]pyridin-5-yloxy)-N-({4-[(tetrahydro-2H-pyran-4-ylmethyl)amino]-3-[(trifluoromethyl)sulfonyl]phenyl}sulfonyl)benzamide] | 0.012
17 | CC1(C)CC(c2ccc(Cl)cc2)=C(CN2CCN(c3ccc(C(=O)NS(=O)(=O)c4ccc(N[C@H]5CC[C@H](N6CCOCC6)CC5)c(S(=O)(=O)C(F)(F)F)c4)c(Oc4cnc5[nH]ccc5c4)c3)CC2)CO1 [Example 44, Trans-4-(4-{[4-(4-chlorophenyl)-6,6-dimethyl-5,6-dihydro-2H-pyran-3-yl]methyl}piperazin-1-yl)-N-({4-[(4-morpholin-4-ylcyclohexyl)amino]-3-[(trifluoromethyl)sulfonyl]phenyl}sulfonyl)-2-(1H-pyrrolo[2,3-b]pyridin-5-yloxy)benzamide] | < 0.01
18 | CN1CCC(Nc2ccc(S(=O)(=O)NC(=O)c3ccc(N4CCN(CC5=C(c6ccc(Cl)cc6)CC(C)(C)OC5)CC4)cc3Oc3cnc4[nH]ccc4c3)cc2S(=O)(=O)C(F)(F)F)CC1 [Example 45, 4-(4-{[4-(4-chlorophenyl)-6,6-dimethyl-5,6-dihydro-2H-pyran-3-yl]methyl}piperazin-1-yl)-N-({4-[(1-methylpiperidin-4-yl)amino]-3-[(trifluoromethyl)sulfonyl]phenyl}sulfonyl)-2-(1H-pyrrolo[2,3-b]pyridin-5-yloxy)benzamide] | < 0.01
19 | CC1(C)CCC(CN2CCN(c3ccc(C(=O)NS(=O)(=O)c4cnc(OCC5CCOCC5)c(C(N)=O)c4)c(Oc4cnc5[nH]ccc5c4)c3)CC2)=C(c2ccc(Cl)cc2)C1 [Example 46, 5-({[4-(4-{[2-(4-chlorophenyl)-4,4-dimethylcyclohex-1-en-1-yl]methyl}piperazin-1-yl)-2-(1H-pyrrolo[2,3-b]pyridin-5-yloxy)benzoyl]amino}sulfonyl)-2-(tetrahydro-2H-pyran-4-ylmethoxy)nicotinamide] | 0.935
